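Briefly, cells in 96-well plates were exposed to five compound concentrations for 48 h, and endpoints were estimated by linear interpolation. Here, GI50 denotes the concentration required for 50% inhibition of growth. TGI denotes the concentration required for complete inhibition of growth.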
Experiments:
Test in all cases: growth of human tumour cells (NCI), 48 h
TK-10 renal = system: TK-10 renal
COLO 205 colon = system: COLO 205 colon
SF-268 CNS = system: SF-268 CNS
U251 CNS = system: U251 CNS
NCI-H460 lung = system: NCI-H460 lung
UACC-62 melanoma = system: UACC-62 melanoma
LOX IMVI melanoma = system: LOX IMVI melanoma
MDA-MB-435 = system: MDA-MB-435
MCF7 breast = system: MCF7 breast
BT-549 breast = system: BT-549 breast

Q: For `COC(=O)/C=C1\CCC2[C@@H](C(=O)CC3[C@]2(C)CCC[C@@]3(C)C(=O)OC)C1C` (some centres not stated), which TGI (TK-10 renal) is on record?
A: 53.4 µM

Q: And the TGI (COLO 205 colon)?
A: 33 µM

Q: And the TGI (SF-268 CNS)?
A: 52.1 µM

Q: What about the TGI (U251 CNS) of the same compound?
A: > 100 µM

Q: What about the TGI (NCI-H460 lung) of the same compound?
A: 32.9 µM

Q: And the TGI (UACC-62 melanoma)?
A: 30 µM

Q: Which results are given for `Cc1nc2ccccc2c(=O)n1/N=C(\N=Nc1ccccc1)c1ccccc1Cl`?
A: TGI (TK-10 renal): > 86.4 µM; TGI (LOX IMVI melanoma): > 100 µM; TGI (COLO 205 colon): > 100 µM; TGI (SF-268 CNS): > 100 µM; TGI (U251 CNS): > 100 µM; TGI (NCI-H460 lung): > 100 µM; TGI (UACC-62 melanoma): > 100 µM

Q: What does the source list for `Cc1cc(-c2nc3sc(C)cn3c2/C=N/N=C(N)N)c(C)s1`?
A: GI50 (TK-10 renal): 6.12 µM; TGI (TK-10 renal): 18.6 µM; GI50 (LOX IMVI melanoma): 13.3 µM; TGI (LOX IMVI melanoma): 29.8 µM; GI50 (COLO 205 colon): 4.76 µM; TGI (COLO 205 colon): 19 µM; GI50 (SF-268 CNS): 13.6 µM; TGI (SF-268 CNS): 28.9 µM; GI50 (U251 CNS): 11.2 µM; TGI (U251 CNS): 25.5 µM; GI50 (NCI-H460 lung): 6.18 µM; TGI (NCI-H460 lung): 21.5 µM; GI50 (MDA-MB-435): 2.13 µM; TGI (MDA-MB-435): 4.79 µM; GI50 (UACC-62 melanoma): 16.5 µM; TGI (UACC-62 melanoma): 30.5 µM

Q: What does the source list for `COc1cc2c3c(n(CCCN=[N+]=[N-])c(=O)c2cc1OC)-c1ccccc1C3=O`?
A: GI50 (TK-10 renal): 13.8 µM; TGI (TK-10 renal): 75.5 µM; GI50 (LOX IMVI melanoma): 1.33 µM; TGI (LOX IMVI melanoma): 9.14 µM; GI50 (SF-268 CNS): > 100 µM; TGI (SF-268 CNS): > 100 µM; GI50 (U251 CNS): 1.61 µM; TGI (U251 CNS): 24.5 µM; GI50 (NCI-H460 lung): 5.2 µM; TGI (NCI-H460 lung): > 100 µM; GI50 (MDA-MB-435): 9.81 µM; TGI (MDA-MB-435): 83.9 µM; GI50 (MCF7 breast): 5.35 µM; TGI (MCF7 breast): > 100 µM; GI50 (UACC-62 melanoma): 2.63 µM; TGI (UACC-62 melanoma): 27.6 µM; GI50 (BT-549 breast): 24.4 µM; TGI (BT-549 breast): > 100 µM

Q: `C[C@]12Cc3conc3C(O)=C1CC[C@@H]1C2CC[C@@]2(C)C1CC[C@@H]2O` (some centres not stated) was tested. Which TGI (TK-10 renal) did it give?
A: > 100 µM

Q: What about the TGI (LOX IMVI melanoma) of the same compound?
A: 24.9 µM

Q: What about the TGI (COLO 205 colon) of the same compound?
A: 99.4 µM

Q: And the TGI (SF-268 CNS)?
A: 73.1 µM

Q: And the TGI (U251 CNS)?
A: 64.4 µM

Q: And the TGI (NCI-H460 lung)?
A: 40.7 µM

Q: And the TGI (UACC-62 melanoma)?
A: 54.6 µM

Q: With `O=C1CCCc2ccc([N+](=O)[O-])c(O)c21` as the compound, how does the TGI (TK-10 renal) read?
A: > 100 µM

Q: What about the TGI (LOX IMVI melanoma) of the same compound?
A: > 100 µM

Q: What about the TGI (COLO 205 colon) of the same compound?
A: > 100 µM

Q: And the TGI (SF-268 CNS)?
A: > 100 µM

Q: What about the TGI (U251 CNS) of the same compound?
A: > 100 µM

Q: And the TGI (NCI-H460 lung)?
A: > 100 µM

Q: What about the TGI (UACC-62 melanoma) of the same compound?
A: > 100 µM

Q: How did the TGI (TK-10 renal) turn out when `C=CC12CCCCC1CC(C(=O)OC)=C(O)C2` (configuration not stated) was run?
A: > 100 µM

Q: What about the TGI (LOX IMVI melanoma) of the same compound?
A: > 100 µM

Q: What about the TGI (COLO 205 colon) of the same compound?
A: > 100 µM

Q: And the TGI (SF-268 CNS)?
A: > 100 µM

Q: And the TGI (U251 CNS)?
A: > 100 µM

Q: What about the TGI (NCI-H460 lung) of the same compound?
A: > 100 µM

Q: And the TGI (UACC-62 melanoma)?
A: > 100 µM

Q: Which results are given for `O=S1Nc2cccc(C(F)(F)F)c2S1` (configuration not stated)?
A: TGI (TK-10 renal): > 100 µM; TGI (LOX IMVI melanoma): 74.1 µM; TGI (COLO 205 colon): 35.8 µM; TGI (SF-268 CNS): > 100 µM; TGI (U251 CNS): > 100 µM; TGI (NCI-H460 lung): > 100 µM; TGI (UACC-62 melanoma): > 100 µM

Q: With `N#CC(Sc1ccccc1)C(N)=O` (configuration not stated) as the compound, how does the TGI (TK-10 renal) read?
A: > 100 µM

Q: What about the TGI (LOX IMVI melanoma) of the same compound?
A: > 100 µM

Q: And the TGI (COLO 205 colon)?
A: > 100 µM

Q: And the TGI (SF-268 CNS)?
A: > 100 µM

Q: What about the TGI (U251 CNS) of the same compound?
A: > 100 µM

Q: What about the TGI (UACC-62 melanoma) of the same compound?
A: > 100 µM

Q: How did the GI50 (TK-10 renal) turn out when `c1cc[c]([Ge]([O]c2cccc3cccnc23)([c]2ccccc2)[c]2ccccc2)cc1` was run?
A: 7.36 µM

Q: And the TGI (TK-10 renal)?
A: 20.3 µM

Q: And the GI50 (LOX IMVI melanoma)?
A: 3.92 µM

Q: What about the TGI (LOX IMVI melanoma) of the same compound?
A: 13.2 µM

Q: And the GI50 (COLO 205 colon)?
A: 4.8 µM

Q: And the TGI (COLO 205 colon)?
A: 14.9 µM

Q: What about the GI50 (SF-268 CNS) of the same compound?
A: 3.55 µM

Q: And the TGI (SF-268 CNS)?
A: 15 µM

Q: And the GI50 (U251 CNS)?
A: 3.83 µM

Q: What about the TGI (U251 CNS) of the same compound?
A: 13.4 µM

Q: And the GI50 (NCI-H460 lung)?
A: 3.37 µM

Q: And the TGI (NCI-H460 lung)?
A: 12.2 µM

Q: What about the GI50 (UACC-62 melanoma) of the same compound?
A: 4.6 µM

Q: And the TGI (UACC-62 melanoma)?
A: 16.4 µM

Q: For `O=CN/C=C/c1ccccc1`, which TGI (TK-10 renal) is on record?
A: > 100 µM

Q: What about the TGI (LOX IMVI melanoma) of the same compound?
A: > 100 µM

Q: What about the TGI (COLO 205 colon) of the same compound?
A: > 100 µM

Q: What about the TGI (SF-268 CNS) of the same compound?
A: > 100 µM

Q: And the TGI (U251 CNS)?
A: > 100 µM

Q: And the TGI (NCI-H460 lung)?
A: > 100 µM

Q: What about the TGI (UACC-62 melanoma) of the same compound?
A: > 100 µM

Q: Which TGI (TK-10 renal) does the source give for `O=C(O)c1cnc2c(ccc3[nH]cccc32)c1=O` here?
A: > 100 µM

Q: What about the TGI (LOX IMVI melanoma) of the same compound?
A: > 100 µM

Q: And the TGI (COLO 205 colon)?
A: > 100 µM

Q: And the TGI (SF-268 CNS)?
A: > 100 µM

Q: And the TGI (U251 CNS)?
A: > 100 µM

Q: What about the TGI (NCI-H460 lung) of the same compound?
A: > 100 µM

Q: What about the TGI (UACC-62 melanoma) of the same compound?
A: > 100 µM

Q: With `COc1ccc2cc3c4cc(OC)c(OC)cc4ccn3c2c1` as the compound, how does the TGI (TK-10 renal) read?
A: > 100 µM

Q: What about the TGI (LOX IMVI melanoma) of the same compound?
A: > 100 µM

Q: What about the TGI (COLO 205 colon) of the same compound?
A: > 100 µM

Q: And the TGI (SF-268 CNS)?
A: > 100 µM

Q: What about the TGI (U251 CNS) of the same compound?
A: > 100 µM

Q: And the TGI (NCI-H460 lung)?
A: > 100 µM

Q: And the TGI (UACC-62 melanoma)?
A: > 100 µM

Q: `O=CCCn1[nH]c(=O)ccc1=O` was tested. Which TGI (TK-10 renal) did it give?
A: > 100 µM

Q: What about the TGI (LOX IMVI melanoma) of the same compound?
A: > 100 µM

Q: And the TGI (SF-268 CNS)?
A: > 100 µM

Q: And the TGI (U251 CNS)?
A: > 100 µM

Q: And the TGI (NCI-H460 lung)?
A: > 100 µM

Q: What about the TGI (UACC-62 melanoma) of the same compound?
A: > 100 µM

Q: How did the TGI (TK-10 renal) turn out when `CC1OC(n2cc(F)c(=O)[nH]c2=O)CCC1=O` (configuration not stated) was run?
A: > 100 µM

Q: And the TGI (LOX IMVI melanoma)?
A: > 100 µM

Q: What about the TGI (COLO 205 colon) of the same compound?
A: > 100 µM

Q: What about the TGI (SF-268 CNS) of the same compound?
A: > 100 µM

Q: What about the TGI (U251 CNS) of the same compound?
A: > 100 µM

Q: What about the TGI (NCI-H460 lung) of the same compound?
A: > 100 µM

Q: And the TGI (UACC-62 melanoma)?
A: > 100 µM

Q: How did the TGI (TK-10 renal) turn out when `CN(C)CC1(C)CC/C(=C\c2ccc(Cl)cc2)C1=O` (configuration not stated) was run?
A: > 100 µM

Q: What about the TGI (LOX IMVI melanoma) of the same compound?
A: 82.1 µM

Q: And the TGI (COLO 205 colon)?
A: 31.7 µM

Q: What about the TGI (SF-268 CNS) of the same compound?
A: > 100 µM

Q: What about the TGI (U251 CNS) of the same compound?
A: > 100 µM

Q: And the TGI (NCI-H460 lung)?
A: 54.6 µM

Q: What about the TGI (UACC-62 melanoma) of the same compound?
A: 64.9 µM

Q: Which TGI (TK-10 renal) does the source give for `O/N=C1/CCCC/C1=C\c1ccc(Cl)c(Cl)c1` here?
A: > 100 µM

Q: What about the TGI (LOX IMVI melanoma) of the same compound?
A: 42.9 µM

Q: What about the TGI (COLO 205 colon) of the same compound?
A: 38.9 µM

Q: What about the TGI (SF-268 CNS) of the same compound?
A: > 100 µM

Q: And the TGI (U251 CNS)?
A: 38.9 µM

Q: What about the TGI (NCI-H460 lung) of the same compound?
A: 57.1 µM

Q: What about the TGI (UACC-62 melanoma) of the same compound?
A: > 100 µM

Q: `NC1=NN(c2ccccc2)C(=O)C1C(=O)C(=O)Nc1ccccc1` (configuration not stated) was tested. Which TGI (TK-10 renal) did it give?
A: > 100 µM

Q: What about the TGI (LOX IMVI melanoma) of the same compound?
A: > 100 µM

Q: What about the TGI (COLO 205 colon) of the same compound?
A: > 100 µM

Q: What about the TGI (SF-268 CNS) of the same compound?
A: > 100 µM

Q: And the TGI (U251 CNS)?
A: > 100 µM

Q: And the TGI (NCI-H460 lung)?
A: > 100 µM

Q: And the TGI (UACC-62 melanoma)?
A: > 100 µM

Q: Which TGI (TK-10 renal) does the source give for `COc1ccc(/C=C/c2onc3c(=O)n(C)nc(-c4ccccc4)c23)cc1` here?
A: > 100 µM

Q: What about the TGI (LOX IMVI melanoma) of the same compound?
A: > 100 µM

Q: And the TGI (COLO 205 colon)?
A: > 100 µM

Q: And the TGI (SF-268 CNS)?
A: > 100 µM

Q: What about the TGI (U251 CNS) of the same compound?
A: > 100 µM

Q: What about the TGI (NCI-H460 lung) of the same compound?
A: > 100 µM

Q: And the TGI (UACC-62 melanoma)?
A: > 100 µM
